The source of these data is patent US20250388565A1, “ESTROGEN RECEPTOR ALPHA DEGRADERS AND METHODS OF USE THEREOF” (Relay Therapeutics, Inc., priority 2022, published 2025).

The assay deals with T1, ERα protein (HiBiT-tagged) in ESR1_HiBiT KI MCF7 cells (Homo sapiens, UniProt P03372).
T1 sequence (P03372 1-595): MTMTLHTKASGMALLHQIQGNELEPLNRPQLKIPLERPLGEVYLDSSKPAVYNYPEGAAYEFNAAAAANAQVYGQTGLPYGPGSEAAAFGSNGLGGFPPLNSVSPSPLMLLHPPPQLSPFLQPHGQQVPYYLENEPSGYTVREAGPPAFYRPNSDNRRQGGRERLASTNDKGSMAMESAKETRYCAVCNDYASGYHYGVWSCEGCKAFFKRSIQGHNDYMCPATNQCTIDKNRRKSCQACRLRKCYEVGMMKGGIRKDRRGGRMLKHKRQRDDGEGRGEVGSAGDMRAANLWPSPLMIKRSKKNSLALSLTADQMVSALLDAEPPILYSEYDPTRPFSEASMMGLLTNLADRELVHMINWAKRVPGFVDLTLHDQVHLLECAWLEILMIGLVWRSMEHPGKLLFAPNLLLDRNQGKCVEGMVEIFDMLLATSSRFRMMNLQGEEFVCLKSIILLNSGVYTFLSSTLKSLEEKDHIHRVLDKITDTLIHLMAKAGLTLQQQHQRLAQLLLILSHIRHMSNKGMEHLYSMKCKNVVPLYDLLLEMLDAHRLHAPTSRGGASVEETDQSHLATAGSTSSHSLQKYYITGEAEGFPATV
Nature of the assay: Nano Glo HiBiT Lytic Degradation Assay. In kind it is cell-based. The settings on record: 6 hours with compound, 14-point dose response 1:3, bell-shape curve fit, half-maximal effect of first Hill model, read-out: MCF7 ESR1 HiBiT - (DC50). Here is the method: Selected compounds of the present disclosure were tested in a Nano Glo HiBiT Lytic Degradation Assay to measure the level of ERα protein degradation in MCF7 cells.
Cell culture: ESR1_HiBiT KI MCF7 cells were maintained in growth media without antibiotics. Cells were maintained in exponential growth phase, between 40% and 90% confluency.
Cell seeding: Cells were counted using a Vi-Cell and seeded in a 384-well flat-bottom microplate (cell culture-treated) at 4000 cells/well in 25 μL of growth medium using a BioTek MultiFlo Multimode Dispenser. Plates were incubated for 24 h at 37° C., 5% CO2, >95% relative humidity.
Compound preparation: Compounds were screened as 14-point dose response curves 1:3 dilutions. DMSO is used as the vehicle control and all wells were normalized to the same final DMSO concentration (0.1% v/v). Compounds were dosed using an Echo Acoustic Liquid Handler, 25 nL of 1000× (10 mM top concentration) DMSO stock/well. Cells were incubated with compounds for 6 hours at 37° C., 5% CO2, >95% relative humidity. Each compound was run in duplicate.
Nano Glo HiBiT Lytic Degradation Assay: HiBiT-tagged ERα protein levels were quantified using a Nano Glo HiBiT Lytic Degradation Assay following the manufacturer's protocol. Briefly, the Nano-Glo® HiBiT Lytic Reagent was prepared by diluting the LgBiT Protein reagent (1:100) and the Nano-Glo® HiBiT Lytic Substrate (1:50) into Nano-Glo® HiBiT Lytic Buffer at room temperature. The 384-well microplate were equilibrated to room temperature and 25 μL of Nano-Glo® HiBiT Lytic Reagent was added to each well. Samples were mixed by placing the 384-well microplate on an orbital shaker for 10 minutes. Luminescence was measured using an EnVision 2105 Multimode Plate Reader.
Data processing and analysis: Background signal (wells containing growth medium without cells) was subtracted from individual relative light units (RLU) values and the resulting values were normalized to the DMSO control well values. Dose responses were analyzed with Genedata Screener® using a bell-shape curve fit and the concentrations corresponding to the half-maximal effect of the first Hill model were used as DC50 values.
(In general: HiBiT is a short tag that completes a luciferase, so light tracks the accessible tagged protein.)
By DC50 is commonly meant the midpoint of the concentration-degradation curve. Consider `O=C1CC[C@H](N2Cc3cc(N4CCN(CC5CCN(c6ccc([C@@H]7c8ccc(O)cc8CC[C@]78CCc7ccccc78)cc6)CC5)CC4)ccc3C2=O)C(=O)N1` [Compound I-262, (S)-3-(5-(4-((1-(4-((1R,1′S)-6′-hydroxy-2,3,3′,4′-tetrahydro-1′H-spiro[indene-1,2′-naphthalen]-1′-yl)phenyl)piperidin-4-yl)methyl)piperazin-1-yl)-1-oxoisoindolin-2-yl)piperidine-2,6-dione], for which the DC50 came to 2 nM.
Under `O=C1CC[C@H](N2Cc3cc(N4CCN(CC5CCN(c6ccc([C@@H]7c8ccc(Cl)cc8CC[C@@H]7c7ccccc7)cc6)CC5)CC4)ccc3C2=O)C(=O)N1` [II-60] stands at least 10000 nM; under `Cc1cc(N2CCC(CN3CCN(c4ccc5c(c4)CN([C@H]4CCC(=O)NC4=O)C5=O)CC3)CC2)ccc1[C@H]1c2ccc(O)cc2CC[C@H]1c1ccccc1` [Compound I-138, (S)-3-(5-(4-((1-(4-((1S,2R)-6-hydroxy-2-phenyl-1,2,3,4-tetrahydronaphthalen-1-yl)-3-methylphenyl)piperidin-4-yl)methyl)piperazin-1-yl)-1-oxoisoindolin-2-yl)piperidine-2,6-dione], at least 10000 nM; under `O=C1CC[C@H](N2Cc3cc(N4CCN(CCC5CCN(c6ccc([C@H]7c8ccc(O)cc8CC[C@H]7c7ccccc7)cc6)CC5)CC4)ccc3C2=O)C(=O)N1` [II-98], at least 10000 nM.
Under `CC1(C)CC([C@H]2CCc3cc(O)ccc3[C@H]2c2ccc(N3CCC(CN4CCN(c5ccc6c(c5)CN([C@H]5CCC(=O)NC5=O)C6=O)CC4)CC3)cc2)CC(C)(C)C1` [Compound I-116, (3.5)-3-[5-[4-[[1-[4-[(1S,2S)-6-hydroxy-2-(3,3,5,5-tetramethylcyclohexyl)tetralin-1-yl]phenyl]-4-piperidyl]methyl]piperazin-1-yl]-1-oxo-isoindolin-2-yl]piperidine-2,6-dione] stands at least 10000 nM; under `COc1cc(N2CCC(CN3CCN(c4ccc5c(c4)CN([C@H]4CCC(=O)NC4=O)C5=O)CC3)CC2)ccc1[C@H]1c2ccc(O)cc2CC[C@H]1c1ccccc1` [Compound I-143, (S)-3-(5-(4-((1-(4-((1R,2R)-6-hydroxy-2-phenyl-1,2,3,4-tetrahydronaphthalen-1-yl)-3-methoxyphenyl)piperidin-4-yl)methyl)piperazin-1-yl)-1-oxoisoindolin-2-yl)piperidine-2,6-dione], at least 10000 nM.
Next, `Cc1cccc([C@@H]2CCc3cc(O)ccc3[C@@H]2c2ccc(N3CCC(CN4CCN(c5ccc6c(c5)CN([C@H]5CCC(=O)NC5=O)C6=O)CC4)CC3)cc2)c1` (single isomer, unassigned) [II-29]: 1.24 nM; `Cc1cc(F)ccc1[C@@H]1CC(F)(F)c2cc(O)ccc2[C@@H]1c1ccc(N2CCC(CN3CCN(c4ccc5c(c4)CN([C@H]4CCC(=O)NC4=O)C5=O)CC3)CC2)cc1` [Compound I-327, (S)-3-(5-(4-((1-(4-((1S,2R)-4,4-difluoro-2-(4-fluoro-2-methylphenyl)-6-hydroxy-1,2,3,4-tetrahydronaphthalen-1-yl)phenyl)piperidin-4-yl)methyl)piperazin-1-yl)-1-oxoisoindolin-2-yl)piperidine-2,6-dione]: at least 10000 nM.
With `O=C1CC[C@H](N2Cc3cc(N4CCN(CC5CCN(c6ccc([C@@H]7c8ccc(O)cc8C(F)(F)C[C@@H]7c7ccccc7)c(F)c6)CC5)CC4)ccc3C2=O)C(=O)N1` [Compound I-199, (S)-3-(5-(4-((1-(4-((1S,2S)-4,4-difluoro-6-hydroxy-2-phenyl-1,2,3,4-tetrahydronaphthalen-1-yl)-3-fluorophenyl)piperidin-4-yl)methyl)piperazin-1-yl)-1-oxoisoindolin-2-yl)piperidine-2,6-dione], the half-maximal degradation concentration (DC50) was 0.33 nM.
For `CC(C)(O)[C@@H]1CCc2cc(O)ccc2[C@@H]1c1ccc(N2CCC(CN3CCN(c4ccc5c(c4)CN([C@H]4CCC(=O)NC4=O)C5=O)CC3)CC2)cc1` [Compound I-219, (S)-3-(5-(4-((1-(4-((1S,2R)-6-hydroxy-2-(2-hydroxypropan-2-yl)-1,2,3,4-tetrahydronaphthalen-1-yl)phenyl)piperidin-4-yl)methyl)piperazin-1-yl)-1-oxoisoindolin-2-yl)piperidine-2,6-dione], the DC50 is at least 10000 nM.
Next, `Cc1ccc([C@@H]2CC(F)(F)c3cc(O)ccc3[C@@H]2c2ccc(N3CCC(CN4CCN(c5ccc6c(c5)CN(C5CCC(=O)NC5=O)C6=O)CC4)CC3)cc2)cc1` (stereo in doubt) [Compound I-321, (R)-3-(5-(4-((1-(4-((1S,2R)-4,4-difluoro-6-hydroxy-2-(p-tolyl)-1,2,3,4-tetrahydronaphthalen-1-yl)phenyl)piperidin-4-yl)methyl)piperazin-1-yl)-1-oxoisoindolin-2-yl)piperidine-2,6-dione]: 0.44 nM.
Under `O=C1CC[C@H](N2Cc3cc(N4CCN(CC5CCN(c6c(F)cc([C@@H]7c8ccc(O)cc8CC[C@@H]7c7ccccc7)cc6F)CC5)CC4)ccc3C2=O)C(=O)N1` [II-84] stands 0.8 nM; under `O=C1CC[C@H](N2Cc3cc(N4CCN(CC5CCN(c6ccc([C@@H]7c8ccc(O)cc8CC[C@@H]7c7cccc(O)c7)cc6)CC5)CC4)ccc3C2=O)C(=O)N1` [Compound I-126, (3S)-3-[5-[4-[[1-[4-[(1R,2S)-6-hydroxy-2-(3-hydroxyphenyl)tetralin-1-yl]phenyl]-4-piperidyl]methyl]piperazin-1-yl]-1-oxo-isoindolin-2-yl]piperidine-2,6-dione], 0.07 nM.
Take `O=C1CC[C@H](N2Cc3cc(N4CCN(CC5CCN(c6ccc([C@@H]7c8ccc(O)cc8C(F)(F)C[C@@H]7c7ccccc7)nc6)CC5)CC4)ccc3C2=O)C(=O)N1` [Compound I-203, (S)-3-(5-(4-((1-(6-((1S,2S)-4,4-difluoro-6-hydroxy-2-phenyl-1,2,3,4-tetrahydronaphthalen-1-yl)pyridin-3-yl)piperidin-4-yl)methyl)piperazin-1-yl)-1-oxoisoindolin-2-yl)piperidine-2,6-dione]: the DC50 amounted to 0.23 nM.
Under `CC(C)[C@H]1CCc2cc(O)ccc2[C@H]1c1ccc(N2CCC(CN3CCN(c4ccc5c(c4)CN(C4CCC(=O)NC4=O)C5=O)CC3)CC2)cc1` (stereo in doubt) [Compound I-128, (R)-3-(5-(4-((1-(4-((1R,2R)-6-hydroxy-2-isopropyl-1,2,3,4-tetrahydronaphthalen-1-yl)phenyl)piperidin-4-yl)methyl)piperazin-1-yl)-1-oxoisoindolin-2-yl)piperidine-2,6-dione] stands 0.1 nM; under `O=C1CCN(c2ccc(N3CCC4(CCN(CC5CCN(c6ccc([C@@H]7c8ccc(O)cc8C(F)(F)C[C@@H]7c7ccccc7)cc6)CC5)C4)C3)cc2)C(=O)N1` (single isomer, unassigned) [Compound I-289], at least 10000 nM; under `Cn1nc([C@@H]2CCC(=O)NC2=O)c2ccc(N3CCN(CC4CCN(c5ccc([C@@H]6c7ccc(O)cc7CC[C@@H]6c6ccccc6)cc5)CC4)CC3)cc21` (single isomer, unassigned) [Compound I-296], 1 nM.
Next, `O=C1CCC(N2Cc3cc(N4CCN(CC5CCN(c6ccc([C@@H]7c8ccc(O)cc8CC[C@@H]7C7CCCC7)cc6)CC5)CC4)ccc3C2=O)C(=O)N1` (single isomer, unassigned) [Compound I-52]: 9 nM; `Cc1cc(F)ccc1[C@H]1OCc2cc(O)ccc2[C@H]1c1ccc(N2CCC(CN3CCN(c4ccc5c(c4)CN([C@H]4CCC(=O)NC4=O)C5=O)CC3)CC2)cc1` [Compound I-371, (S)-3-(5-(4-((1-(4-((3S,4R)-3-(4-fluoro-2-methylphenyl)-7-hydroxyisochroman-4-yl)phenyl)piperidin-4-yl)methyl)piperazin-1-yl)-1-oxoisoindolin-2-yl)piperidine-2,6-dione]: 0.17 nM.
